Values quoted from earlier work, collected in patent US20090202633A1, “Extended release formulations of guaifenesin” (priority 2008, published 2009).

Experiments:
[1] = not given; remark: listed apart in the source

typical plasma half-life: approximately one
solubility in water [1]: soluble in water
Structure (SMILES): COc1ccccc1OCC(O)CO (centres unmarked) [Guaifenesin, 3-(2-methoxyphenoxy)-1,2-propanediol]
